Measurements taken from patent publication US20020055528A1, “Artemisinin analogs having antimalarial, antiproliferative, and antitumor activities and chemoselective methods of making the same” (priority 1999, published 2002).

Columns and labels:
Assay type in all cases: cell-based
[1] = system: murine keratinocyte cell line PE; experiment: Growth inhibition of PE cells, MTT assay; settings: 100 nanomolar; compared with calcitriol; FIG. 5
Experimental: To determine the inhibitory effect of the compositions of the present invention on cell proliferation, screening assays were performed on a murine keratinocyte cell line PE. Cell line PE was chosen for its particular sensitivity to the induction of omithine decarboxylase (ODC) activity by the extensively characterized tumor promoter TPA. Cell line PE was derived from a papilloma-induced in female SENCAR mice by a standard skin initiation/promotion protocol, see Yuspa, S. H., et al., Carcinogenesis, 7:949-958 (1986). PE cell culture medium consisted of Eagle's minimal essential medium without calcium chloride (Whittaker Bioproducts, Walkersville, Mass.) supplemented with 8% chelexed fetal calf serum and 1% antibiotic-antimycotic (Gibco BRL) and the addition of CaCI2 to 0.05 mM Ca^++
MTT [3-(4,5-dimethylthiazol-2-yl)-2,5-diphenyltetraxolium bromide] was purchased from Sigma Chemical Co. (St. Louis, Mo.), and TPA was supplied by L.C. Services (Woburn, Mass.). L-[^14C]omithine ([…]) was from Amersham/Searle Corp. (Arlington Heights, Ill.). Chemical solvents used in all assays of biological activity were of the highest grade commercially available.
Growth curves, shown in FIG. 5, for PE cells treated with calcitriol and the C-10 carbon-substituted dimers VII-f, VII-g and VII-h generated by assay for the reduction of the tetrazolium-based compound MTT, see Charmichael, et al., Cancer Res., 47:936-942 (1987). A mitochondrial dehydrogenase reduces MTT to a blue formazan product with an absorbance maximum of 505 nm in DMSO; the number of viable cells can thus be determined spectrophotometrically. PE cells were seeded at a density of 5,000 cells/well in 50 IL of medium into 96-well microtiter plates. Twelve hours later, the medium was removed, and cells were treated with 100 μL of fresh medium into which the appropriate amount of calcitriol or analog dissolved in dimethyl sulfoxide (DMSO) had been added, with the concentration of DMSO held constant at 0.1 %. […] At 24-hour intervals following the initial treatment of the cells with compounds, 0.1 mg (50 μL of a 2 mg/mL solution) of MTT was added to each well. After 4 hours, the MTT was removed and DMSO added to dissolve the blue formazan dye. Using a microtiter plate reader, the A505 was then determined and cell number calculated from blank-subtracted absorbance values.

HL-60(TB) = experiment: NCI 60 cell line screen (SRB), Leukemia
RPMI-8226 = experiment: NCI 60 cell line screen (SRB), Leukemia; settings: Table IV (LC50, PG=−50)
NCI-H460 = experiment: NCI 60 cell line screen (SRB), Non-Small Cell Lung Cancer
HCT-116 = experiment: NCI 60 cell line screen (SRB), Colon Cancer
HT29 = experiment: NCI 60 cell line screen (SRB), Colon Cancer
SNB-19 = experiment: NCI 60 cell line screen (SRB), CNS Cancer
U251 = experiment: NCI 60 cell line screen (SRB), CNS Cancer
MALME-3M = experiment: NCI 60 cell line screen (SRB), Melanoma
SK-MEL2 = experiment: NCI 60 cell line screen (SRB), Melanoma
UACC-257 = experiment: NCI 60 cell line screen (SRB), Melanoma
UACC-62 = experiment: NCI 60 cell line screen (SRB), Melanoma
SK-MEL-5 = experiment: NCI 60 cell line screen (SRB), Melanoma
IGROVI = experiment: NCI 60 cell line screen (SRB), Ovarian Cancer
ACHN = experiment: NCI 60 cell line screen (SRB), Renal Cancer
CAKI-1 = experiment: NCI 60 cell line screen (SRB), Renal Cancer
TK-10 = experiment: NCI 60 cell line screen (SRB), Renal Cancer
MDA-MB231/ATCC = experiment: NCI 60 cell line screen (SRB), Breast Cancer; settings: MDA- (first line of MDA-MB231/ATCC)
HS 578T = experiment: NCI 60 cell line screen (SRB), Breast Cancer

CC1=C(C=Cc2cccc(C=CC3=C(C)C4CCC(C)C5CCC6(C)OOC45C(O3)O6)c2)OC2OC3(C)CCC4C(C)CCC1C24OO3 (centres unmarked) [VII-h]
antiproliferative activity in words [1]: at least as antiproliferative as calcitriol
Log10TGI (HL-60(TB); PG=0): −7.59 log10M
Log10GI50 (HL-60(TB); PG=+50): −7.59 log10M
Log10GI50 (HL-60(TB); Table IV (LC50, PG=−50)): >−4.00 log10M
Log10GI50 (RPMI-8226): >−4.00 log10M
Log10TGI (NCI-H460; PG=0): >−4.00 log10M
Log10 GI50 or Log10 LC50 (NCI-H460; PG=+50): −5.59 log10M
Log10TGI (HCT-116; PG=0): −5.38 log10M
Log10 GI50 (PG=+50) or Log10 LC50 (PG=−50), as given per row condition (HCT-116; PG=+50): −7.53 log10M
Log10 GI50 (PG=+50) or Log10 LC50 (PG=−50), as given per row condition (HCT-116; Table IV (LC50, PG=−50)): >−4.00 log10M
Log10TGI (HT29; PG=0): >−4.00 log10M
Log10GI50 (HT29; PG=+50): −7.37 log10M
Log10GI50 (HT29; Table IV (LC50, PG=−50)): >−4.00 log10M
Log10TGI (SNB-19; PG=0): >−4.00 log10M
Log10GI50 or Log10LC50 (see condition) (SNB-19; PG=+50): −7.09 log10M
Log10GI50 or Log10LC50 (see condition) (SNB-19; Table IV (LC50, PG=−50)): >−4.00 log10M
Log10TGI (U251; PG=0): >−4.00 log10M
Log10GI50 (U251; PG=+50): −7.26 log10M
Log10GI50 (U251; Table IV (LC50, PG=−50)): >−4.00 log10M
Log10TGI (MALME-3M; PG=0): −4.17 log10M
Log10GI50 (MALME-3M; PG=+50): −6.94 log10M
Log10GI50 (MALME-3M; Table IV (LC50, PG=−50)): >−4.00 log10M
Log10TGI (SK-MEL2; PG=0): −5.34 log10M
Log10 GI50 or LC50 (per conditions) (SK-MEL2; PG=+50): −6.87 log10M
Log10 GI50 or LC50 (per conditions) (SK-MEL2; Table IV (LC50, PG=−50)): >−4.00 log10M
Log10TGI (UACC-257; PG=0): >−4.00 log10M
Log10 GI50 (PG=+50) or Log10 LC50 (PG=−50) (UACC-257; PG=+50): −7.21 log10M
Log10 GI50 (PG=+50) or Log10 LC50 (PG=−50) (UACC-257; Table IV (LC50, PG=−50)): >−4.00 log10M
Log10TGI (UACC-62; PG=0): >−4.00 log10M
Log10GI50 (UACC-62; PG=+50): −6.91 log10M
Log10GI50 (UACC-62; Table IV (LC50, PG=−50)): >−4.00 log10M
Log10TGI (SK-MEL-5; PG=0): −6.21 log10M
Log10 GI50 or LC50 (SK-MEL-5; PG=+50): −7.36 log10M
Log10TGI (IGROVI; PG=0): −4.20 log10M
Log10GI50 (IGROVI; Table IV (LC50, PG=−50)): >−4.00 log10M
Log10TGI (ACHN; PG=0): >−4.00 log10M
Log10 GI50 or LC50 (see conditions) (ACHN; PG=+50): −6.86 log10M
Log10 GI50 or LC50 (see conditions) (ACHN; Table IV (LC50, PG=−50)): >−4.00 log10M
Log10TGI (CAKI-1; PG=0): >−4.00 log10M
Log10GI50 (CAKI-1; PG=+50): −6.28 log10M
Log10GI50 (CAKI-1; Table IV (LC50, PG=−50)): >−4.00 log10M
Log10TGI (TK-10; PG=0): >−4.00 log10M
Log10GI50 (TK-10; PG=+50): −7.22 log10M
Log10GI50 (TK-10; Table IV (LC50, PG=−50)): >−4.00 log10M
Log10TGI (MDA-MB231/ATCC; PG=0): −5.35 log10M
Log10 GI50 or LC50 (per conditions) (MDA-MB231/ATCC; PG=+50): −6.49 log10M
Log10 GI50 or LC50 (per conditions) (MDA-MB231/ATCC; Table IV (LC50, PG=−50)): >−4.00 log10M
Log10TGI (HS 578T; PG=0): >−4.00 log10M
Log10GI50 (HS 578T; PG=+50): −7.41 log10M
Log10GI50 (HS 578T; Table IV (LC50, PG=−50)): >−4.00 log10M
